Converted amounts (≈) assume the structure as drawn.
Columns and labels:
patients = assay: Clinical trials employing crystalline Form A: adverse effects; type: in vivo, human
Description: In clinical trials employing crystalline Form A of Compound (I), adverse effects were categorized by severity into Grades 1-5. Most adverse events reported were Grade 1 or 2, indicating crystalline Form A of Compound (I) is well-tolerated. […] Severe dose limiting toxicities for other TKIs may be a result of inhibiting a broad range of kinases.

[1] = Stability comparison of the crystalline forms; type: physicochemical; settings: ambient temperature
[2] = for Solubility, FaSSGF: pH 1.67; for Solubility, FaSSIF: pH 6.57
Procedure: Fasted simulated intestinal fluid (FaSSIF) (pH=6.57) was prepared by dissolving NaOH pellets (0.105 g), NaH2PO4·H2O (0.9875 g), and NaCl (1.5475 g) in distilled water (225 mL) and adjusting the pH to 6.57 by adding 1 N NaOH solution and 1 N HCl. Water was then added to a volume of 250 mL to produce phosphate buffer. Biorelevant powder (0.56 g) was dissolved in the phosphate buffer (125 mL), then made up to 250 mL using phosphate buffer. The prepared solution was left standing for 2 hours and then used for solubility measurements.
Fasted simulated gastric fluid (FaSSGF) (pH=1.67) was prepared by dissolving NaCl (0.5 g) in distilled water (225 mL). The pH was adjusted to 1.67 using 1 N HCl, then the solution was made up to 250 mL using distilled water to produce NaCl/HCl solution. Biorelevant powder (0.015 g) was dissolved in NaCl/HCl solution (125 mL), then made up to 250 mL using NaCl/HCl solution. The prepared solution was ready for use.
Solubility of crystalline Form A and a mixture of crystalline Form A and crystalline Form C was measured in fasted simulated intestinal fluid (FaSSIF), fasted simulated gastric fluid (FaSSGF), and water at 37° C. Thin slurries were stirred overnight and then supernatant was collected for HPLC analysis.
Solubility of crystalline Form H of a hydrochloride salt of Compound (I), crystalline Form Tr of a tartrate salt of Compound (I), and crystalline Form T of a tosylate salt of Compound (I) was measured in fasted state simulated intestinal fluid (FaSSIF), fasted state simulated gastric fluid (FaSSGF), and water at 37° C. About 1.5 mL solution was stirred at 37° C. The salt was then added incrementally until a thin slurry was formed, followed by stirring overnight. The solids were allowed to settle, and the pH of the supernatant was taken. Supernatant was recovered for injection to HPLC and solids were recovered for XRPD.
Solubility was determined based on interpolation from a calibration curve prepared using freebase.

[3] = Dynamic vapor sorption (DVS); type: physicochemical
Procedure: DVS: Dynamic Vapor Sorption (DVS) was performed using a DVS Intrinsic 1. The sample was loaded into a sample pan and suspended from a microbalance. A typical sample mass for DVS measurement was 25 mg. Nitrogen gas bubbled through distilled water provided the desired relative humidity. A typical measurement comprised the following steps: • 1. Equilibrate at 50% RH • 2. 50% to 2%. (50%, 40%, 30%, 20%, 10%, and 2%) • a. Hold minimum of 5 minutes and maximum of 60 minutes at each humidity. The pass criteria was less than 0.002% change; • 3. 2% to 95% (2%, 10%, 20%, 30%, 40%, 50%, 60%, 70%, 80%, 90%, 95%) • a. Hold minimum of 5 minutes and maximum of 60 minutes at each humidity. The pass criteria was less than 0.002% change; • 4. 95% to 2% (95%, 80%, 70%, 60%, 50%, 40%, 30%, 20%, 10%, 2%) • a. Hold minimum of 5 minutes and maximum of 60 minutes at each humidity. The pass criteria was less than 0.002% change; • 5. 2% to 50% (2%, 10%, 20%, 30%, 40%, 50%) • a. Hold minimum of 5 minutes and maximum of 60 minutes at each humidity. The pass criteria was less than 0.002% change.

[4] = XRPD of solids recovered from the solubility slurries; type: physicochemical; settings: 37° C.; for Stability of crystalline form upon slurrying (XRPD): overnight
Procedure: XRPD: X-ray powder diffraction was done using a Rigaku MiniFlex 600. Samples were prepared on Si zero-return wafers. Typical scans were obtained from 20 of 4 to 30 degrees, with step size 0.05 degrees over five minutes with 40 kV and 15 mA. High resolution scans were obtained from 20 of 4 to 40 degrees, with step size 0.05 degrees over thirty minutes with 40 kV and 15 mA. Typical parameters for XRPD are listed below.
Solids were recovered from the slurries for analysis by XRPD. Crystalline Form H was stable upon slurrying in all solutions. Crystalline Form Tr was stable upon slurrying in water.

SMILES | Solubility, FaSSGF [2] [µg/mL] | Weight change in DVS experiment ([3]; 2-95% RH at 25° C.) [%] | Weight change in DVS experiment ([3]; 2-95% RH at 40° C.) [%] | Solubility, FaSSIF [2] [µg/mL] | Weight change in DVS experiment ([3]; 2-95% RH at room temperature) [%] | further results
Cn1cc(-c2cc3c(N4CCN(c5ncc([C@@](C)(N)c6ccc(F)cc6)cn5)CC4)ncnn3c2)cn1 [crystalline Form A, (S)-1-(4-fluorophenyl)-1-(2-(4-(6-(1-methyl-1H-pyrazol-4-yl)pyrrolo[2,1-f][1,2,4]triazin-4-yl)piperazin-1-yl)pyrimidin-5-yl)ethan-1-amine] | 2110 (≈ 4.23 mM) | 0.42 | 0.29 | – | – | Severe dose limiting toxicities observed for other TKIs (dermatologic, hepatic, cardiovascular) (patients): did not exhibit; Severity grade of most adverse events reported (patients; Grades 1-5): Grade 1 or 2; Stability relative to the other crystalline forms [1]: more stable; Hygroscopicity by DVS analysis [3]: non-hygroscopic; Weight change in DVS experiment ([3]; 70-95% RH at 40° C.): 0.20%; Moisture uptake by weight ([3]; exposed to 40° C. and up to 95% relative humidity): up to 0.44%
Cn1cc(-c2cc3c(N4CCN(c5ncc([C@@](C)(N)c6ccc(F)cc6)cn5)CC4)ncnn3c2)cn1 [crystalline Form C, (S)-1-(4-fluorophenyl)-1-(2-(4-(6-(1-methyl-1H-pyrazol-4-yl)pyrrolo[2,1-f][1,2,4]triazin-4-yl)piperazin-1-yl)pyrimidin-5-yl)ethan-1-amine] | 2720 (≈ 5.46 mM) | 2.90 | 2.99 | 30 (≈ 0.0602 mM) | – | Weight change in DVS experiment ([3]; 2-10% RH at 25° C.): 1.76%; Weight change in DVS experiment ([3]; 2-10% RH at 40° C.): 1.93%
Cn1cc(-c2cc3c(N4CCN(c5ncc([C@@](C)(N)c6ccc(F)cc6)cn5)CC4)ncnn3c2)cn1 [crystalline Form H] | 4180 (≈ 8.38 mM) | – | – | 100 (≈ 0.201 mM) | 15 | Stability of crystalline form upon slurrying (XRPD) ([4]; all solutions (FaSSIF, FaSSGF, water)): stable; Weight change in DVS experiment ([3]; 80-95% RH at room temperature): 10.8%
Cn1cc(-c2cc3c(N4CCN(c5ncc([C@@](C)(N)c6ccc(F)cc6)cn5)CC4)ncnn3c2)cn1 [crystalline Form T] | 1880 (≈ 3.77 mM) | – | – | 80 (≈ 0.16 mM) | – | –
Cn1cc(-c2cc3c(N4CCN(c5ncc([C@@](C)(N)c6ccc(F)cc6)cn5)CC4)ncnn3c2)cn1 [crystalline Form Tr] | 4790 (≈ 9.61 mM) | – | – | 270 (≈ 0.542 mM) | 4.4 | Stability of crystalline form upon slurrying (XRPD) ([4]; FaSSGF): converted into crystalline Form H; Behaviour of solid in slurry ([4]; FaSSIF): gummed; Stability of crystalline form upon slurrying (XRPD) ([4]; water): stable
